Read-outs that look alike come from different tables or passages of the source. One block for each compound: values may come before it.
What was measured:
Bcl-xL = Bcl-xL (Homo sapiens, UniProt Q07817); assay: Bcl-xL binding affinity analysis (fluorescence polarization binding assay); design: scale not given here
How it was run: (§1)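 In vitro measurement of compound binding to each protein by fluorescence polarization, described as sensitive and quantitative.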

[1] = system: RL Human Follicular Lymphoma Cell Line; assay: Alamar blue cytotoxicity assay in RL cells; format: cell-based; conditions: 72 h incubation, read-out: Bcl RL Alamar Blue IC50
Experimental: When RL-cells are exposed to isoxazolidine compounds of the present invention, the inhibitors show a dose-dependent cell-killing in the Alamar blue cytoxicity assay with IC50 values of from about 100 μM to about 1 μM (See Examples). When Panc1 cells are exposed to the isoxazolidine compounds of the present invention in combination with camptothecin, the inhibitors show a synergistic dose-dependent cell killing in the propidium iodide exclusion cell survival assay with IC50 values of from about 100 μM to about 1 μM (See Examples).
• 1) Using 96 well plates, compounds were serially diluted in DMSO from 9 mM to 4 uM • 2) Assay plates were prepared by diluting samples 310 fold into 150 ul of medium containing 30,000 cells/well resulting in a final DMSO concentration of 0.3% and a concentration range from 29 uM to 0.013 uM for each compound. • 3) Plates were incubated at 37 C and 5% CO2 for 72 h • 4) After 72 h, Alamar blue reagent was added to each well and plates read according to manufacturer's instructions
In vitro cytotoxicity data for RL cells is presented below for various compounds of the invention.

Bcl-2 = Bcl-2 (Homo sapiens, UniProt P10415); assay: Bcl-2 binding affinity analysis (fluorescence polarization binding assay)
How it was run: as §1

Sequence of Bcl-xL (Q07817 whole entry): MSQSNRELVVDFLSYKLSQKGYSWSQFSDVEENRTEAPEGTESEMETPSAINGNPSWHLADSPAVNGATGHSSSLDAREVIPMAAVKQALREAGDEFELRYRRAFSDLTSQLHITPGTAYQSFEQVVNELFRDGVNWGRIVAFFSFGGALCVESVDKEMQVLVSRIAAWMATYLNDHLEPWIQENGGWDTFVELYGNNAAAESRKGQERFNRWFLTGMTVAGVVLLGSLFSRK
Sequence of Bcl-2 (P10415 whole entry): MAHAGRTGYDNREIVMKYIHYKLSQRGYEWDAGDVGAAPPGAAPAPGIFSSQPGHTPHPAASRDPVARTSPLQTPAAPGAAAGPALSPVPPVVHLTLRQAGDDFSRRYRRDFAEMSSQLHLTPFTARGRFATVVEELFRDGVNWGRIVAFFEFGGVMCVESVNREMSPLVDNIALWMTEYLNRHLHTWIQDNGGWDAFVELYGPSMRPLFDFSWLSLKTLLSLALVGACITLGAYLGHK

SMILES: C[C@@H]1[C@@H](NC(=O)[C@@H]2C([C@H](C)O)[C@H](CO)ON2Cc2cccc(CN(Cc3ccccc3)[C@@H]3CCN(C)C3)c2)C[C@H]2C[C@@H]1C2(C)C (stereo partly drawn) [Compound 432]
Bcl-XL binding affinity Ki (Bcl-xL): ♯
IC50 ([1]; Homo sapiens): < 2000 nM
Ki (Bcl-2): < 800 nM

SMILES: CC(O)C1C(CO)ON(Cc2cccc(CN3c4ccccc4CC3CN(C)C)c2)C1C(=O)NC1CC2CC(C1C)C2(C)C (stereo not drawn) [Compound 465]
Bcl-XL binding affinity Ki (Bcl-xL): ♯
IC50 ([1]; Homo sapiens): > 5000 nM
Ki (Bcl-2): < 800 nM

SMILES: COc1cccc(OC)c1CN(Cc1cccc(CN2OC(CO)C(C(C)O)C2C(=O)NC2CC3CC(C2C)C3(C)C)c1)C(CC(C)C)CN(C)C (stereo not drawn) [Compound 324]
Bcl-XL binding affinity Ki (Bcl-xL): ♯
IC50 ([1]; Homo sapiens): < 2000 nM
Ki (Bcl-2): < 800 nM

SMILES: COc1c(CN2O[C@@H](CO)[C@@H]([C@H](C)O)[C@H]2C(=O)N[C@H]2C[C@H]3C[C@@H]([C@@H]2C)C3(C)C)cccc1-c1cccc(C(=O)N[C@H](CN(C)C)c2ccccc2)c1 [Compound 491]
Bcl-XL binding affinity Ki (Bcl-xL): ♯
IC50 ([1]; Homo sapiens): 2000 to 5000 nM
Ki (Bcl-2): < 800 nM

SMILES: CC(O)C1C(CO)ON(Cc2cccc(C(=O)NC(Cc3ccccc3)CN(C)C)c2)C1C(=O)NC1CC2CC(C1C)C2(C)C (stereo not drawn) [Compound 507]
Bcl-XL binding affinity Ki (Bcl-xL): ♯
IC50 ([1]; Homo sapiens): > 5000 nM
Ki (Bcl-2): < 800 nM

SMILES: C[C@@H]1[C@@H](NC(=O)[C@@H]2[C@H]([C@H](C)O)[C@H](CO)ON2Cc2cccc(NC(=O)N(C)[C@H](CC3CCCCC3)CN(C)C)c2)C[C@H]2C[C@@H]1C2(C)C [Compound 576]
Bcl-XL binding affinity Ki (Bcl-xL): ♯
IC50 ([1]; Homo sapiens): 2000 to 5000 nM
Ki (Bcl-2): < 800 nM

SMILES: CCCCCCCN(CCN(C)C)Cc1cccc(CN2O[C@@H](CO)C([C@H](C)O)[C@H]2C(=O)N[C@H]2C[C@H]3C[C@@H]([C@@H]2C)C3(C)C)c1 (stereo partly drawn) [Compound 355]
Bcl-XL binding affinity Ki (Bcl-xL): ♯
IC50 ([1]; Homo sapiens): 2000 to 5000 nM
Ki (Bcl-2): < 800 nM

SMILES: CC(O)C1C(CO)ON(Cc2cccc(CN(CCN(C)C)Cc3ccccc3-c3ccccc3)c2)C1C(=O)NC1CC2CC(C1C)C2(C)C (stereo not drawn) [Compound 340]
Bcl-XL binding affinity Ki (Bcl-xL): ♯
IC50 ([1]; Homo sapiens): 2000 to 5000 nM
Ki (Bcl-2): < 800 nM

SMILES: COc1cc(CN(CCN(C)C)Cc2cccc(CN3OC(CO)C(C(C)O)C3C(=O)NC3CC4CC(C3C)C4(C)C)c2)cc(OC)c1 (stereo not drawn) [Compound 404]
Bcl-XL binding affinity Ki (Bcl-xL): ♯
IC50 ([1]; Homo sapiens): 2000 to 5000 nM
Ki (Bcl-2): < 800 nM

SMILES: CC(O)C1C(CO)ON(Cc2cccc(CN(CCN(C)C)Cc3cccc(C(F)(F)F)c3)c2)C1C(=O)NC1CC2CC(C1C)C2(C)C (stereo not drawn) [Compound 398]
Bcl-XL binding affinity Ki (Bcl-xL): ♯
IC50 ([1]; Homo sapiens): > 5000 nM
Ki (Bcl-2): < 800 nM

SMILES: C[C@@H]1[C@@H](NC(=O)[C@@H]2[C@H]([C@H](C)O)[C@H](CO)ON2Cc2cccc(NC(=O)N[C@@H](CC3CCCCC3)CN(C)C)c2)C[C@H]2C[C@@H]1C2(C)C [Compound 577]
Bcl-XL binding affinity Ki (Bcl-xL): ♯
IC50 ([1]; Homo sapiens): 2000 to 5000 nM
Ki (Bcl-2): < 800 nM

SMILES: C[C@@H]1[C@@H](NC(=O)[C@@H]2[C@H]([C@H](C)O)[C@H](CO)ON2Cc2cccc(N(CCCN(C)C)CC3CCCCC3)c2)C[C@H]2C[C@@H]1C2(C)C [Compound 586]
Bcl-XL binding affinity Ki (Bcl-xL): ♯
IC50 ([1]; Homo sapiens): 2000 to 5000 nM
Ki (Bcl-2): < 800 nM

SMILES: COc1c(CN2O[C@@H](CO)[C@@H]([C@H](C)O)[C@H]2C(=O)N[C@H]2C[C@H]3C[C@@H]([C@@H]2C)C3(C)C)cccc1-c1cccc(C(=O)N[C@@H](CCc2ccccc2)CN(C)C)c1 [Compound 481]
Bcl-XL binding affinity Ki (Bcl-xL): ♯
IC50 ([1]; Homo sapiens): 2000 to 5000 nM
Ki (Bcl-2): < 800 nM

SMILES: CC(O)C1C(CO)ON(Cc2cccc(CNCC3CCCN3C(=O)OCc3ccccc3)c2)C1C(=O)NC1CC2CC(C1C)C2(C)C (stereo not drawn) [Compound 474]
Bcl-XL binding affinity Ki (Bcl-xL): ♯
IC50 ([1]; Homo sapiens): 2000 to 5000 nM
Ki (Bcl-2): < 800 nM

SMILES: Cc1ccc(CN(CCN(C)C)Cc2cccc(CN3OC(CO)C(C(C)O)C3C(=O)NC3CC4CC(C3C)C4(C)C)c2)cc1 (stereo not drawn) [Compound 386]
Bcl-XL binding affinity Ki (Bcl-xL): ♯
IC50 ([1]; Homo sapiens): 2000 to 5000 nM
Ki (Bcl-2): < 800 nM

SMILES: CC(O)C1C(CO)ON(Cc2cccc(CN(CCN(C)C)Cc3ccccc3F)c2)C1C(=O)NC1CC2CC(C1C)C2(C)C (stereo not drawn) [Compound 352]
Bcl-XL binding affinity Ki (Bcl-xL): ♯
IC50 ([1]; Homo sapiens): 2000 to 5000 nM
Ki (Bcl-2): < 800 nM

SMILES: C[C@@H]1[C@@H](NC(=O)[C@@H]2[C@H]([C@H](C)O)[C@H](CO)ON2Cc2cccc(NC(=O)N[C@H](Cc3ccccc3)CN(C)C)c2)C[C@H]2C[C@@H]1C2(C)C [Compound 571]
Bcl-XL binding affinity Ki (Bcl-xL): ♯
IC50 ([1]; Homo sapiens): > 5000 nM
Ki (Bcl-2): < 800 nM

SMILES: C[C@@H]1[C@@H](NC(=O)[C@@H]2[C@H]([C@H](C)O)[C@H](CO)ON2Cc2cccc(NC(=O)N(C)[C@@H](CC3CCCCC3)CN(C)C)c2)C[C@H]2C[C@@H]1C2(C)C [Compound 575]
Bcl-XL binding affinity Ki (Bcl-xL): ♯
IC50 ([1]; Homo sapiens): 2000 to 5000 nM
Ki (Bcl-2): < 800 nM

SMILES: CC(O)C1C(CO)ON(Cc2cccc(CN(CCN(C)C)Cc3cccc(Cl)c3)c2)C1C(=O)NC1CC2CC(C1C)C2(C)C (stereo not drawn) [Compound 361]
Bcl-XL binding affinity Ki (Bcl-xL): ♯
IC50 ([1]; Homo sapiens): 2000 to 5000 nM
Ki (Bcl-2): < 800 nM

The next lines start with results.

Bcl-XL binding affinity Ki (Bcl-xL): ♯
Ki (Bcl-2): < 800 nM
SMILES: CC(O)C1C(CO)ON(Cc2cccc(CN3CCN(C)C(c4ccccc4)C3)c2)C1C(=O)NC1CC2CC(C1C)C2(C)C (stereo not drawn) [Compound 456]
IC50 ([1]; Homo sapiens): > 5000 nM

Bcl-XL binding affinity Ki (Bcl-xL): ♯
Ki (Bcl-2): < 800 nM
SMILES: COc1c(CN2O[C@@H](CO)[C@@H]([C@H](C)O)[C@H]2C(=O)N[C@H]2C[C@H]3C[C@@H]([C@@H]2C)C3(C)C)cccc1-c1cccc(C(=O)N[C@H](CCc2ccccc2)CN(C)C)c1 [Compound 482]
IC50 ([1]; Homo sapiens): < 2000 nM

Bcl-XL binding affinity Ki (Bcl-xL): ♯
Ki (Bcl-2): < 800 nM
SMILES: CC(O)C1C(CO)ON(Cc2cccc(NC(=O)NC(CCc3ccccc3)CN(C)C)c2)C1C(=O)NC1CC2CC(C1C)C2(C)C (stereo not drawn) [Compound 573]
IC50 [1]: 2000 to 5000 nM

Bcl-XL binding affinity Ki (Bcl-xL): ♯
Ki (Bcl-2): < 800 nM
SMILES: CC(C)C[C@H](CN(C)C)NC(=O)Nc1cccc(CN2O[C@@H](CO)[C@@H]([C@H](C)O)[C@H]2C(=O)NC2C[C@H]3C[C@@H]([C@@H]2C)C3(C)C)c1 (stereo partly drawn) [Compound 562]
IC50 ([1]; Homo sapiens): > 5000 nM

Bcl-XL binding affinity Ki (Bcl-xL): ♯
Ki (Bcl-2): < 800 nM
SMILES: CC(O)C1C(CO)ON(Cc2cccc(CN(CCN(C)C)Cc3ccc(C(F)(F)F)cc3)c2)C1C(=O)NC1CC2CC(C1C)C2(C)C (stereo not drawn) [Compound 371]
IC50 ([1]; Homo sapiens): 2000 to 5000 nM

Bcl-XL binding affinity Ki (Bcl-xL): ♯
Ki (Bcl-2): < 800 nM
SMILES: CC(O)C1C(CO)ON(Cc2cccc(CN3CCN(C)CC3)c2)C1C(=O)NC1CC2CC(C1C)C2(C)C (stereo not drawn) [Compound 447]
IC50 ([1]; Homo sapiens): > 5000 nM

Bcl-XL binding affinity Ki (Bcl-xL): ♯
Ki (Bcl-2): < 800 nM
SMILES: CC(O)C1C(CO)ON(Cc2cccc(CN(CCN(C)C)Cc3ccccc3C#N)c2)C1C(=O)NC1CC2CC(C1C)C2(C)C (stereo not drawn) [Compound 369]
IC50 ([1]; Homo sapiens): 2000 to 5000 nM

Bcl-XL binding affinity Ki (Bcl-xL): ♯
Ki (Bcl-2): < 800 nM
SMILES: CC(O)C1C(CO)ON(Cc2cccc(CN3C(CN(C)C)CC4CCCCC43)c2)C1C(=O)NC1CC2CC(C1C)C2(C)C (stereo not drawn) [Compound 466]
IC50 ([1]; Homo sapiens): > 5000 nM

Bcl-XL binding affinity Ki (Bcl-xL): ♯
Ki (Bcl-2): < 800 nM
SMILES: CCc1ccccc1CN(CCN(C)C)Cc1cccc(CN2OC(CO)C(C(C)O)C2C(=O)NC2CC3CC(C2C)C3(C)C)c1 (stereo not drawn) [Compound 349]
IC50 ([1]; Homo sapiens): < 2000 nM

Bcl-XL binding affinity Ki (Bcl-xL): ♯
Ki (Bcl-2): < 800 nM
SMILES: CC(C)CC(CN(C)C)N(Cc1cccc(CN2OC(CO)C(C(C)O)C2C(=O)NC2CC3CC(C2C)C3(C)C)c1)Cc1ccc(F)cc1C(F)(F)F (stereo not drawn) [Compound 323]
IC50 ([1]; Homo sapiens): > 5000 nM

Bcl-XL binding affinity Ki (Bcl-xL): ♯
Ki (Bcl-2): < 800 nM
SMILES: CC(O)C1C(CO)ON(Cc2cccc(CN(CCN(C)C)Cc3ccc(-c4ccccc4)cc3)c2)C1C(=O)NC1CC2CC(C1C)C2(C)C (stereo not drawn) [Compound 400]
IC50 ([1]; Homo sapiens): < 2000 nM

Bcl-XL binding affinity Ki (Bcl-xL): ♯
Ki (Bcl-2): < 800 nM
SMILES: CC(O)C1C(CO)ON(Cc2cccc(CN(CCN(C)C)Cc3cc4ccccc4o3)c2)C1C(=O)NC1CC2CC(C1C)C2(C)C (stereo not drawn) [Compound 384]
IC50 ([1]; Homo sapiens): 2000 to 5000 nM

Bcl-XL binding affinity Ki (Bcl-xL): ♯
Ki (Bcl-2): < 800 nM
SMILES: CC(O)C1C(CO)ON(Cc2cccc(CN(CCN(C)C)Cc3cccc(OC(F)(F)F)c3)c2)C1C(=O)NC1CC2CC(C1C)C2(C)C (stereo not drawn) [Compound 367]
IC50 ([1]; Homo sapiens): 2000 to 5000 nM
